Data reported in patent US10414763B2 (CANCER RESEARCH TECHNOLOGY LIMITED, priority 2014, dated 2019).

Each compound was assayed against T1, full-length human PKCι (Homo sapiens, UniProt P41743) (assay: PKCι IC50 IMAP fluorescence polarisation assay, full-length enzyme, 150 μM ATP). Conditions: read-out: IC50 in IMAP assay against full length PKCi at 150 μM ATP.
T1 construct: Recombinant, full-length human PKCι expressed in Sf21 insect cells is also commercially available; purchased EMD Millipore; host or cells: Sf21 insect cells (baculovirus)
T1 sequence (P41743 1-596): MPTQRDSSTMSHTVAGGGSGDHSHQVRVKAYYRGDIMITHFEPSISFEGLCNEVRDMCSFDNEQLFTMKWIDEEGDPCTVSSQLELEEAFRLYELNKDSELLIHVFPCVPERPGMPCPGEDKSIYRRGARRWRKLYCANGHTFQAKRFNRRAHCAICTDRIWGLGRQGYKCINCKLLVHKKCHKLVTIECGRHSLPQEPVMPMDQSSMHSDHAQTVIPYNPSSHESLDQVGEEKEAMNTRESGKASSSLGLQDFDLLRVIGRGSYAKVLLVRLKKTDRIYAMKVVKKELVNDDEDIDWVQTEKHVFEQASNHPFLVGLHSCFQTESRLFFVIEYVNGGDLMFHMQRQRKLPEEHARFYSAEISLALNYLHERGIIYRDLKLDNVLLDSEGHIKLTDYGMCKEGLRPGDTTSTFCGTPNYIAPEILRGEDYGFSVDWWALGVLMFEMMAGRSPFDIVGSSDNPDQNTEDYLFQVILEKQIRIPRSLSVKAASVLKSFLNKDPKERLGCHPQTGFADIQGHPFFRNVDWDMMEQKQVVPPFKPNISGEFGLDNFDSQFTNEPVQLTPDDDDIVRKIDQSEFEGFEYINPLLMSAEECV
Format: biochemical
In short: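 IMAP fluorescence polarisation kinase assay: 15 pM baculovirus-expressed human PKCiota with 100 nM FAM-pseudosubstrate peptide and 150 μM ATP, 1 h at 25 °C. IMAP detection reagent then 2 h at 25 °C before FP measurement. Inhibition referenced to no-compound and no-enzyme controls for IC50 fitting.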

SMILES	IC50
CNC(=O)c1cc2c(-c3nc(N4CCC5CNCCC54)c4c(C5CC5)cncc4n3)ccnc2[nH]1 (stereo not drawn) [Example 99, 4-[5-Cyclopropyl-4-(octahydro-pyrrolo[3,2-c]pyridin-1-yl)-pyrido[3,4-d]pyrimidin-2-yl]-1H-pyrrolo[2,3-b]pyridine-2-carboxylic acid methylamide]	< 0.1 µM
Cc1cc2c(-c3nc(N(C)C4CCNCC4(C)C)c4c(C5CC5)cncc4n3)ccnc2[nH]1 (stereo not drawn) [Example 115, [5-Cyclopropyl-2-(2-methyl-1H-pyrrolo[2,3-b]pyridin-4-yl)-pyrido [3,4-d]pyrimidin-4-yl]-(3,3-dimethyl-piperidin-4-yl)-methyl-amine]	< 0.1 µM
FC(F)(F)c1cncc2nc(-c3ccnc4[nH]c5ccccc5c34)nc(N3CCNCC3)c12 [Example 215, 4-(4-Piperazin-1-yl-5-trifluoromethyl-pyrido[3,4-d]pyrimidin-2-yl)-9H-pyrido[2,3-b]indole]	0.1 to 1 µM
OC[C@H]1CNCCN1c1nc(-c2ccnc3[nH]c(C(F)(F)F)cc23)nc2cncc(C3CCC3)c12 [Example 7, {(R)-1-[5-Cyclobutyl-2-(2-trifluoromethyl-1H-pyrrolo[2,3-b]pyridin-4-yl)-pyrido[3,4-d]pyrimidin-4-yl]-piperazin-2-yl}-methanol]	0.1 to 1 µM
CC1(C)CNCC[C@@H]1Nc1nc(-c2ccnc(Nc3nc4ccccn4n3)c2)nc2cncc(C3CC3)c12 [Example 241, [5-Cyclopropyl-2-[2-([1,2,4]triazolo[1,5-a]pyridin-2-ylamino)-pyridin-4-yl]-pyrido[3,4-d]pyrimidin-4-yl}-((S)-3,3-dimethyl-piperidin-4-yl)-amine]	< 0.1 µM
Cc1cc2c(-c3nc(N4CC[C@H]5NCCC[C@H]54)c4c(C5CCC5)cncc4n3)ccnc2[nH]1 (racemic) [Example 85, (±)-5-Cyclobutyl-2-(2-methyl-1H-pyrrolo[2,3-b]pyridin-4-yl)-4-(3,7-cis)-octahydro-pyrrolo [3,2-b]pyridin-1-yl-pyrido[3,4-d]pyrimidine]	< 0.1 µM
c1ccc(Sc2cc3c(-c4nc(N5CCNCC5)c5c(C6CC6)cncc5n4)ccnc3[nH]2)cc1 [Example 14, 5-Cyclopropyl-2-(2-phenylsulfanyl-1H-pyrrolo[2,3-b]pyridin-4-yl)-4-piperdzin-1-yl-pyrido[3,4-d] pyrimidine]	< 0.1 µM
CC1(C)CNCCC1Nc1nc(-c2ccnc(Nc3ncn(Cc4ccccc4)n3)c2)nc2cncc(C3CC3)c12 (racemic) [Example 237, rac-{2-[2-(1-Benzyl-1H-1,2,4-triazol-3-ylamino)-pyridin-4-yl]-5-cyclopropyl-pyrido[3,4-d]pyrimidin-4-yl}-(3,3-dimethyl-piperidin-4-yl)-amine]	< 0.1 µM
O[C@]12CCN(c3nc(-c4ccnc(Nc5ncn(Cc6ccccc6)n5)c4)nc4cncc(C5CC5)c34)[C@H]1CCNC2 (racemic) [Example 240, rac-(3aS,7aS)-1-{2-[2-(1-Benzyl-1H-1,2,4-triazol-3-ylamino)-pyridin-4-yl]-5-cyclopropyl-pyrido[3,4-d]pyrimidin-4-yl}-octahydro-pyrrolo[3,2-c]pyridin-3a-ol]	< 0.1 µM
COc1ccccc1-c1cc2c(-c3nc(N(C)C4CCNCC4(C)C)c4c(C5CC5)cncc4n3)ccnc2[nH]1 (stereo not drawn) [Example 23, {5-Cyclopropyl-2-[2-(2-methoxy-phenyl)-1H-pyrrolo[2,3-b]pyridin-4-yl]-pyrido[3,4-d]pyrimidin-4-yl}-(3,3-dimethyl-piperidin-4-yl)-methyl-amine]	< 0.1 µM
CN(c1nc(-c2ccnc(Nc3nc(C4CC4)cs3)c2)nc2cncc(C3CC3)c12)C1CCNCC1(C)C (stereo not drawn) [Example 53, {5-Cyclopropyl-2-[2-(4-cyclopropyl-thiazol-2-ylamino)-pyridin-4-yl]-pyrido[3,4-d]pyrimidin-4-yl}-(3,3-dimethyl-piperidin-4-yl)-methyl-amine]	0.1 to 1 µM
CS(=O)(=O)c1cc2c(-c3nc(N4CCNCC4)c4c(C5CCC5)cncc4n3)ccnc2[nH]1 [Example 120, 5-Cyclobutyl-2-(2-methanesulfonyl-1H-pyrrolo[2,3-b]pyridin-4-yl)-4-piperazin-1-yl-pyrido[3,4-d]pyrimidine]	< 0.1 µM
c1ncc(-c2cc3c(-c4nc(N5CCNCC5)c5c(C6CCC6)cncc5n4)ccnc3[nH]2)cn1 [Example 131, 5-Cyclobutyl-4-piperazin-1-yl-2-(2-pyrimidin-5-yl-1H-pyrrolo[2,3-b]pyridin-4-yl)-pyrido[3,4-d]pyrimidine]	< 0.1 µM
COc1nc(-c2cc3c(-c4nc(N5CCNCC5)c5c(C6CC6)cncc5n4)ccnc3[nH]2)cs1 [Example 112, 5-Cyclopropyl-2-[2-(2-methoxy-thiazol-4-yl)-1H-pyrrolo[2,3-b]pyridin-4-yl]-4-piperazin-1-yl-pyrido[3,4-d] pyrimidine]	< 0.1 µM

The remaining lines, values ahead:

IC50	SMILES
< 0.1 µM	O[C@H]1CNCC[C@H]1Nc1nc(-c2ccnc(Nc3ccc4ccccc4n3)c2)nc2cncc(C3CCC3)c12 (racemic) [Example 270, rac-(3S,4R)-4-{5-Cyclobutyl-2-[2-(quinolin-2-ylamino)-pyridin-4-yl]-pyrido[3,4-d]pyrimidin-4-ylamino}-piperidin-3-ol]
0.1 to 1 µM	CC1(C)CNCC[C@@H]1Nc1nc(-c2ccnc(Nc3cncc(Cl)c3)c2)nc2cncc(C3CC3)c12 [Example 266, 2-[2-[(5-chloro-3-pyridyl)amino]-4-pyridyl]-5-cyclopropyl-N-[(4S)-3,3-dimethyl-4-piperidyl]pyrido[3,4-d]pyrimidin-4-amine]
< 0.1 µM	O[C@H]1CNCC[C@H]1Nc1nc(-c2ccnc(Nc3nc(F)cc(F)c3F)c2)nc2cncc(C3CCC3)c12 (racemic) [Example 294, rac-(3S,4R)-4-{5-Cyclobutyl-2-[2-(3,4,6-trifluoro-pyridin-2-ylamino)-pyridin-4-yl]-pyrido[3,4-d]pyrimidin-4-ylamino}-piperidin-3-ol]
< 0.1 µM	Fc1cc(F)c(Nc2cc(-c3nc(N[C@H]4[C@@H]5CNC[C@@H]54)c4c(C5CCC5)cncc4n3)ccn2)nc1F [Example 108, (1S,6S)-3-Aza-bicyclo[3.1.0]hex-6-yl-{(R)-5-cyclobutyl-2-[2-(3,5,6-trifluoro-pyridin-2-ylamino)-pyridin-4-yl]-pyrido[3,4-d]pyrimidin-4-yl}-amine]
< 0.1 µM	Fc1cc(F)c(Nc2cc(-c3nc(N4CCOC5CNCC54)c4c(C5CC5)cncc4n3)ccn2)nc1F (stereo not drawn) [Example 202, {4-[5-Cyclopropyl-4-(hexahydro-pyrrolo[3,4-b][1,4]oxazin-4-yl)-pyrido[3,4-d]pyrimidin-2-yl]-pyridin-2-yl}-(3,5,6-trifluoro-pyridin-2-yl)-amine]
< 0.1 µM	C[C@H]1CNCC[C@@H]1Nc1nc(-c2ccnc(Nc3nc(F)ccc3F)c2)nc2cncc(C3CC3)c12 (single isomer, unassigned) [Example 334, 5-Cyclopropyl-2-[2-[(3,6-difluoro-2-pyridyl)amino]-4-pyridyl]-N-[(3S,4S)-3-methyl-4-piperidyl]pyrido[3,4-d]pyrimidin-4-amine or enantiomer]
< 0.1 µM	C[C@@H]1CNCC[C@H]1Nc1nc(-c2ccnc(Nc3ncc(F)cc3F)c2)nc2cncc(C3CC3)c12 (racemic) [Example 303, {5-Cyclopropyl-2-[2-(3,5-difluoro-pyridin-2-ylamino)-pyridin-4-yl]-pyrido[3,4-d]pyrimidin-4-yl}-(rac-(3R,4R)-3-methyl-piperidin-4-yl)-amine]
